Source: patent US10688197B2, “Non-alcoholic fatty liver regulator 14-3-3 protein” (Korea University Research and Business Foundation, priority 2015, dated 2020)

Legend:
[1] = target: T1, PPARγ2 deletion mutant (1-310) (Homo sapiens, UniProt P37231); assay: GST-pull down assay with PPARγ2 deletion mutant (1-310); format: binding; conditions: FIG. 3B/3C
T1 construct: Flag-PPARγ2 (1-310) DNA (4 μg); expressed in transfected cells; host or cells: HEK-293T
T1 sequence (P37231 1-310): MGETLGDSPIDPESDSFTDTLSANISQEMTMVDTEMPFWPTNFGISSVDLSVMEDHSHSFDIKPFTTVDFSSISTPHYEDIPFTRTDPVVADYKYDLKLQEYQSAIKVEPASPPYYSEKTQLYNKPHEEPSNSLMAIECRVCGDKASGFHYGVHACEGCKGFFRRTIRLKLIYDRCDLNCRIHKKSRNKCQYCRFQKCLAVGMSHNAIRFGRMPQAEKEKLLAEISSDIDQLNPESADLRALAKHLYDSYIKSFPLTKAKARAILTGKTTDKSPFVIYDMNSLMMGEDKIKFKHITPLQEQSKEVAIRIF
Protocol: HEK-293T cells were seeded in a 100 mm plate at a density of 2×10^6 cells per each well, and then transfected with Flag-PPARγ2 (1-505) DNA (4 μg), Flag-PPARγ2 (1-310) DNA (4 μg), Flag-PPARγ2 (139-505) DNA (4 μg), and mGST-14-3-3β (4 μg) or mGST-14-3-3γ (4 μg) using an E-fection plus reagent (Lugen). For Flag-PPARγ2 (1-310) DNA and Flag-PPARγ2 (139-505) DNA, DNA fragments amplified through polymerase chain reaction (PCR) were cloned into a pCMV-3Tag-1 vector using restriction enzymes XhoI and ApaI. A ratio of DNA to the E-fection plus reagent was 1:2, and this method was performed according to a manufacturer's manual. The corresponding cells were washed with ice-cold PBS and lysed using 500 μl/well of a lysis buffer (150 mM NaCl, 1 mM EDTA, 1% Nonidet P-40, 5% glycerol, 25 mM tris-HCl, pH 7.5, protease inhibitor added), and the lysed cells were centrifuged at 10,000×g and 4° C. for 10 minutes to extract proteins. Thereafter, 1,000 μg of the proteins was reacted with 20 μl of glutathione Sepharose 4B beads (GE Healthcare, Buckinghamshire, UK) for 6 hours, and then washing of the beads with 1 ml of ice-cold PBS was repeated 5 times, and the beads were boiled at 100° C. for 10 minutes, followed by 10% SDS-PAGE gel separation and western blotting. A ratio of GST antibodies (Santa Cruz) to Flag antibodies (Santa Cruz) was 1:3000. […]

[2] = system: FAT/CD36 promoter; assay: Chromatin immunoprecipitation (ChIP assay), binding of PPARγ2 to FAT/CD36 promoter in HepG2 cells; format: cell-based; conditions: overexpression, FIG. 7C upper side
Protocol: In addition, for chromatin immunoprecipitation (ChIP), HepG2 cells were seeded in a 100 mm plate at a density of 4×10^6 cells per each well, and then transfected with Flag-PPARγ2 DNA (4 μg), mGST-14-3-3β DNA (4 μg) or mGST-14-3-3γ DNA (4 μg), and si-14-3-3β (20 μM, Santa Cruz) or si-14-3-3γ (20 μM, Santa Cruz) using an E-fection plus reagent (Lugen). A ratio of DNA to the E-fection plus reagent was 1:2, and this method was performed according to a manufacturer's manual. The corresponding cells were treated with 0.75% formaldehyde at room temperature for 15 minutes, glycine was added thereto, and the resulting cells were scraped into ice-cold PBS and centrifuged at 1,000×g and 4° C. for 3 minutes to remove a supernatant, pellets were dissolved with 400 μl of FA lysis buffer (50 mM HEPES, 150 mM NaCl, 2 mM EDTA pH 8.0, 1% Triton-X100, 0.1% NaDeoxycholate), and then lysed using a sonicator twice for 10 minutes at a high voltage under the following condition: lysis for 30 seconds and resting for 30 seconds. […]
In addition, the binding of PPARγ2 and a binding strength thereof according to the expression of 14-3-3β and 14-3-3γ were evaluated by ChIP assay using a PPAR response element (PPRE) known as a binding site of PPARγ2 present in the FAT/CD36 promoter. […]

[3] = system: SREBP-1c protein; assay: SREBP-1c protein expression by western blotting in HepG2 cells; format: cell-based; conditions: HepG2, overexpression, 200 μM oleic acid 72 hours, FIG. 7D
Protocol: In addition, HepG2 cells were seeded in a 6-well plate at a density of 5×10^5 cells per each well, and then transfected with HA-14-3-3β DNA (1 μg) or HA-14-3-3γ DNA (1 μg) using an E-fection plus reagent (Lugen). A ratio of DNA to the E-fection plus reagent was 1:2, and this method was performed according to a manufacturer's manual. After transfection, the cells were treated with 200 μM of oleic acid (OA) for 72 hours, washed with ice-cold PBS, and lysed with 80 μl/well of a lysis buffer (150 mM NaCl, 1 mM EDTA, 1% Nonidet P-40, 5% glycerol, 25 mM tris-HCl, pH 7.5, protease inhibitor added), the lysed cells were centrifuged at 10,000×g and 4° C. for 10 minutes to extract proteins, and 30 μg of the proteins was separated on a 10% SDS-PAGE gel and identified using each of the antibodies (HA, SREBP-1c: Santa Cruz) by western blotting, and all antibodies were used in a ratio of 1:3000.

binding to PPARγ2 deletion mutant (1-310) [1]	Substance	binding of PPARγ2 to the FAT/CD36 promoter [2]	expression of the SREBP-1c protein [3]
bound	14-3-3β: 14-3-3 isoform protein overexpressed by DNA transfection; increases the transcriptional activity of PPARγ2 by binding to PPARγ2	increased	increased
bound	14-3-3γ: 14-3-3 isoform protein overexpressed by DNA transfection; decreases the transcriptional activity of PPARγ2; proposed active ingredient	inhibited	reduced
